The record followed here is patent US5387614A, “Use of sigma receptor ligands as salivary gland stimulants” (University of Iowa Research Foundation, priority 1993, dated 1995).

Each structure is given as a SMILES string.

Test [1] concerns the target sigma-binding site. Briefly: 3H-DTG radioligand saturation binding (Scatchard plot) in submaxillary gland membrane homogenate. Set-up: species or system New Zealand white rabbits. As to conditions: single binding site; membrane homogenate of acini cells from rabbit submaxillary gland; 4° C., 60 min; spiperone 25 nM. As to the method:
In this procedure, New Zealand white rabbits were sacrificed using 1/2-1 ml of Beuthanasia-D Special (Schering Plough Animal Health, Keniworth, N.J.: 390 mg pentobarital sodium and 50 mg phenytoin sodium per ml) by injecting the preparation into the marginal ear vein. Whole submaxillary glands, free of blood, were dissected and either used immediately or frozen in cold 100 mM tris-HCl (pH 7.4) buffer. Glandular tissue was rinsed with cold 50 mM Tris-HCl (pH 7.4) followed by homogenization for 30 sec (Polytron, Brinkman Instr., setting 7). The homogenate was centrifuged at 800 rpm for 10 min at 4° C. to remove extraneous tissue. Then the supernatant was centrifuged at 75,000 Xg for 15 min at 4° C. (model L8-55, Preparative Ultracentrifuge, Beckman Instruments, Fullerton, Calif.). Following centrifugation, the pellet was homogenized again in 100 mM tris-HCl buffer and centrifuged at 75,000 Xg for 15 min. The resulting pellet containing the membrane fragments was suspended in Tris-HCl buffer to yield a concentration of 250 mg (wet wt) per mL. […]
Spiperone (25 nM) was added to prevent binding to D2 dopamine or 5HT2 serotonin receptors. […] The filter, containing the precipitate, was transferred to a scintillation vial containing 1 mL of tissue solubilizer (Soluene 350, Packard Inst.) and 4 mL of scintillation fluid (Budget Solve , Fisher Scientific, Fair Lawn, N.J.) and counted (Beckman LS 3801). […]

Test [2] deals with sigma receptors. As to the kind of experiment: Radioligand competition experiments in submaxillary gland membrane homogenate. Format: binding, New Zealand white rabbits. As to conditions: radioligand 3H-DTG (5 nM); rabbit submaxillary gland membranes; 4° C., 60 minutes; spiperone 25 nM; mean ± spread; read-out: averaged IC50.
Protocol: In this procedure, New Zealand white rabbits were sacrificed using 1/2-1 ml of Beuthanasia-D Special (Schering Plough Animal Health, Keniworth, N.J.: 390 mg pentobarital sodium and 50 mg phenytoin sodium per ml) by injecting the preparation into the marginal ear vein. Whole submaxillary glands, free of blood, were dissected and either used immediately or frozen in cold 100 mM tris-HCl (pH 7.4) buffer. Glandular tissue was rinsed with cold 50 mM Tris-HCl (pH 7.4) followed by homogenization for 30 sec (Polytron, Brinkman Instr., setting 7). The homogenate was centrifuged at 800 rpm for 10 min at 4° C. to remove extraneous tissue. Then the supernatant was centrifuged at 75,000 Xg for 15 min at 4° C. (model L8-55, Preparative Ultracentrifuge, Beckman Instruments, Fullerton, Calif.). Following centrifugation, the pellet was homogenized again in 100 mM tris-HCl buffer and centrifuged at 75,000 Xg for 15 min. […]
Spiperone (25 nM) was added to prevent binding to D2 dopamine, or 5HT2 serotonin receptors. […] The filter along with the adhering precipitate was transferred to a scintillation vial containing 1 mL of tissue solubilizer (Soluene 350, Packard Inst., Downers Grove, Ill.) and 4 mL of scintillation fluid (Budget Solve , Fisher Scientific, Fair Lawn, N.J.) and counted (Beckman LS 3801). […] Specific binding was determined by subtracting NSB from total binding. […]
Test [3] deals with salivary secretion. Briefly: Saliva flow observed after topical dosing of the rabbit eye. Format: in vivo. As to conditions: rabbit eye dosed topically (use as dry eye syndrome treatment). The source says:
The observations of effective salivary stimulation actually occurred during use of the most preferred compound wherein N=2, and R and R" are methyl, as dry eye syndrome treatment. […] This led to further investigations of this and other compounds as a means of treating dry mouth associated with, for example, Sjogren's syndrome. The present compound for example could be formulated into a conventional lozenge for a topical application directly in the oral cavity to stimulate saliva flow. Such lozenges can either be made by dissolving the drug in water, adding powdered sugar, flavor and a gum (e.g., 7% powdered acacia) to give sufficient adhesiveness. This type of lozenge is harder than a conventional tablet, but dissolves slowly. The lozenge formulation is made by compressing the formula on a tablet press according to the art.

Turning to `Cc1ccccc1NC(=N)Nc1ccccc1C` [3H-DTG], the Kd in test [1] was determined as 6 ± 1.2 nM. As to `CN(Cc1cc(Br)cc(Br)c1N)C1CCCCC1` [bromhexine], in test [2], the IC50 was found to be 690 ± 276 nM. Consider `CN(C)CCc1ccccc1` [most preferred compound, N,N-dimethyl-2-phenylethylamine], for which the saliva flow entry in test [3] is recorded as “copious amounts of saliva flowed from about one half of the rabbits”.
